Consider one sequence from publication PMC7340446, “Optimization of PTH/PTHrP Hybrid Peptides to Derive a Long‐Acting PTH Analog (LA‐PTH)” (JBMR Plus, 2020).

Where no end group is shown, it is not given here.

The test system of series [1] is thyroparathyroidectomized (TPTX) rats. Briefly: Repeated daily administration in TPTX rats (11‐day treatment, 12‐day study). It is filed as in vivo, rat. The conditions noted are these: daily s.c. 8.0 nmol/kg. Here is the method:
TPTX rats were injected i.v. or s.c. with vehicle or vehicle containing a PTH peptide, or orally treated once daily with vehicle (medium‐chain triglyceride; Chugai Pharma Manufacturing, Tokyo, Japan) or vehicle containing alfacalcidol (Chugai Pharma Manufacturing) for 11 days. Blood samples were obtained from the tail or jugular vein immediately before and at times after injection. Urine samples at 0 to 8 hours or 8 to 24 hours, were collected in metabolic cages. sCa and uCa, serum inorganic phosphorus (sPi) and urinary phosphorus (uPi), and creatinine (uCre) were measured with an automatic analyzer (7180; Hitachi, Ltd, Chiyoda, Tokyo, Japan). Urinary deoxypyridinoline (uDpD) was measured using a Metra DPD EIA kit (DS Pharma Biomedical, Osaka, Japan), and the data were normalized to the uCre concentrations. Serum FGF23 was measured using FGF23 ELISA assay (Immunodiagnostik AG, Bensheim, Germany). Serum 1,25‐dihydroxyvitamin D [1,25(OH)2D3] levels were determined by a ELISA immunoassay (Immunodiagnostic System Ltd, Bolden, UK).
Figure 4 Effects of 11‐day treatment (12‐day study) with M‐PTH/PTHrP or alfacalcidol on serum calcium (sCa) in thyroparathyroidectomized (TPTX) rats. TPTX rats were treated for 11 days with daily s.c. injection of either vehicle or M‐PTH/PTHrP, or with daily oral alfacalcidol at the indicated doses, and sham‐surgery control rats were s.c. injected daily with vehicle. The levels of Ca in serum and urine were assessed. Blood samples were collected from the jugular vein at 8 hours (A) and at 24 hours (B) after the last treatment administration, and assessed for total sCa. Total urine was collected in metabolic cages over the time intervals of 0 to 8 hours (C), and 8 to 24 hours (D) and assessed for total urinary Ca. Data are means ± SEM; n = 6 or 5 (2.0 and 4.0 nmol/kg of M‐PTH/PTHrP); *p < 0.05 M‐PTH/PTHrP versus TPTX‐vehicle; #p < 0.05 TPTX vehicle versus sham.
Supplementary file JBM4-4-e10367-s001.pdf: Figure S1 PTH ligand‐induced cAMP‐signaling responses in GP‐2.3 cells Time course of the cAMP‐dependent luminescence response measured at 2‐minute intervals in the presence of each ligand at 10 nM (Ligand on‐phase) and B) Time course of the cAMP‐dependent luminescence response measured at 2‐minute intervals after washout of unbound ligand (Ligand wash‐out phase). GP‐2.3 cells preloaded with luciferin were treated with a concentration of PTH ligand at a concentration of 10 nM for 30 min, and cAMP‐dependent luminescence was measured at two‐minute intervals (ligand‐on phase). The cells were then removed from the plate reader, rinsed twice with media to remove unbound ligand, and then fresh media containing luciferin but lacking ligand was added and luminescence was assessed for additional 90 min (Ligand wash‐out phase). Data are means (± SEM) of four experiments, each performed in triplicate. Figure S2. In vivo calcemic actions of M‐PTH/PTHrP hybrid analogs in normal rats. The indicated M‐PTH/PTHrP hybrid analogs (sequences are shown in Figure 1) along with PTH(1–34) and PTHrP(1–36) controls, were administered at the indicated doses by i.v. injection, and at the indicated time points blood was collected from the tail vein and measured for ionized calcium (Ca^2+). Panels A‐C represent three separate experiments. Data are means ± SEM; n = 6 or 4 (80 nmol/kg of M‐PTH(1‐11)/PTHrP(12–36), M‐PTH(1‐14)/PTHrP(12–36), M‐PTH(1‐17)/PTHrP(18–36) and 1.25 nmol/kg of M‐PTH(1–30)/PTHrP(31–36)). *p < 0.05 versus Vehicle. Figure S3. Effects of 11 days treatment (12 days study) of M‐PTH/PTHrP on serum 1,25(OH) 2 Vitamin‐D3, urinary deoxypyridinoline (Dpd) and serum FGF23 in TPTX rats. Serum and urine samples obtained from the TPTX and sham control rats of the two‐week daily‐administration experiment shown in Figure 4 were analyzed by ELISA for the indicated markers. A) serum 1,25(OH)2Vitamin‐D3. B) urinary deoxypyridinoline (DpD)/Cre. C) serum FGF23. […]

Series [2] is described as follows: Peptide solubility in aqueous buffers of neutral pH. It is filed as physicochemical. Particulars: aqueous buffers at neutral pH; approximate.
In series [3] the target is T1, human PTHR1 (R^0 conformation) (Homo sapiens, UniProt Q03431).
T1 construct: expressed in transfected cells; host or cells: COS-7 cells (transient transfection; membranes)
T1 sequence (Q03431 27-593): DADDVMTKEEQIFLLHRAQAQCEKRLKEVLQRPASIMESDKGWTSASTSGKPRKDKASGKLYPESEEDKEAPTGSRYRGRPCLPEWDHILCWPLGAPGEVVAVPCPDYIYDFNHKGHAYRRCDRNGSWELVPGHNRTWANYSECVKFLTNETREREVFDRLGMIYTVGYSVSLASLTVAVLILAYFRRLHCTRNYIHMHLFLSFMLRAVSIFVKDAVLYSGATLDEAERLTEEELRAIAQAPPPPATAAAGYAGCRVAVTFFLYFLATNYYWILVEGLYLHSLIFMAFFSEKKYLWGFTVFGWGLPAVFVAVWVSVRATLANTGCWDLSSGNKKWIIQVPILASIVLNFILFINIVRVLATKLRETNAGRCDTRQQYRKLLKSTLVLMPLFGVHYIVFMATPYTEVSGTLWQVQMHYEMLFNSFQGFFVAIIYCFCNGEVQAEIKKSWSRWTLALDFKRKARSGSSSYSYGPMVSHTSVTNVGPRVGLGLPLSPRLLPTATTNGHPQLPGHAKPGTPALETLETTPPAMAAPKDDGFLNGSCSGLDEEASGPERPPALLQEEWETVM
Kind of series: Competition binding to the R^0 conformation of PTHR1.

A word on the IC50: it is the point on the concentration scale where inhibition reaches its midpoint. Low values mean inhibition by little substance, high ones a need for much substance. Consider “AVAEIQLMHQRAKWIQDLRRRFFLHHLIAEIHTAEI [M‐PTH(1‐14)/PTHrP(15‐36), [Ala^1,3,12,Gln^10,Arg^11,Trp^14]‐PTH(1‐14)/PTHrP(15–36)]”, for which the sCa levels entry in series [1] (8 hours after administration) is listed as “frank hypercalcemia”. In addition, the “uCa at 0 to 8 hours and uDpD at 0 to 24 hours” value in series [1] (after the last administration) is “increased significantly”. The “Concentration at which the peptide is poorly soluble” value in series [2] is more than 300 µg/mL. Moreover, the IC50 in series [3] turned out to be 2.69 ± 0.99 nM.
